In publication PMC7073924, “2-Aminomethylene-5-sulfonylthiazole Inhibitors of Lysyl Oxidase (LOX) and LOXL2 Show Significant Efficacy in Delaying Tumor Growth” (Journal of Medicinal Chemistry, 2019):
pIC50: −log10 of the molar value. Values joined by “and” are separate entries in the source; they are usually repeats but may differ in a detail not shown here. Equal entries are not always repeated. Structures can show the parent of a compound that is named as a salt. Where two headings read alike, the source gives them in different places.

Legend:
LOXL2 [1] = molecular target: T1, LOXL2 (Homo sapiens, UniProt Q9Y4K0); assay: LOXL2 enzyme assay (Promega ROS-Glo, cadaverine substrate); format: biochemical
T1 sequence (Q9Y4K0 26-774): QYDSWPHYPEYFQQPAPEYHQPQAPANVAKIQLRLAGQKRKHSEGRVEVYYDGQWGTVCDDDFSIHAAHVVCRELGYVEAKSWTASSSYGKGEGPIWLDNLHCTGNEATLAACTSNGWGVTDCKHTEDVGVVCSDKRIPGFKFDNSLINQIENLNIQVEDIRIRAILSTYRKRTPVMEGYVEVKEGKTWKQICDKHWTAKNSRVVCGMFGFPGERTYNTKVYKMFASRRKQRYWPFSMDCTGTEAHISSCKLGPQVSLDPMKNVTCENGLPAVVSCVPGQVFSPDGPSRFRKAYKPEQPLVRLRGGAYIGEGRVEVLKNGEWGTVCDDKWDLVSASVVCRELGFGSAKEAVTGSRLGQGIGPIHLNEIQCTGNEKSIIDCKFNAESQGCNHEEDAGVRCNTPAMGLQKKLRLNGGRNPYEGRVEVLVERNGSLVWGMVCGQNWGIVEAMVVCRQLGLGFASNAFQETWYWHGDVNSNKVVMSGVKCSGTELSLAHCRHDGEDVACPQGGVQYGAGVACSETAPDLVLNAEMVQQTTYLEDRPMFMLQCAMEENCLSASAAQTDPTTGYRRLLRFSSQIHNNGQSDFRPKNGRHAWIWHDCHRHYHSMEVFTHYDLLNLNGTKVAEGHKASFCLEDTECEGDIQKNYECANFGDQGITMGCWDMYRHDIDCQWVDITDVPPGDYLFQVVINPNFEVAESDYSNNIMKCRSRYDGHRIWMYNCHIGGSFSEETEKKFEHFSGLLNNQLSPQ
Description: (§1) LOXL2 and LOXL3 were purchased from R&D Systems. LOX, LOXL2, and LOXL3 catalytic activity were determined using the Promega ROS-Glo assay kit with cadaverine dihydrochloride as substrate, BAPN as the reference inhibitor control, a preincubation time of 20 min, 1 h, or 3 h, with nine dilutions from a top concentration of 10 μM or 100 μM.

LOXL3 [2] = molecular target: T2, LOXL3 (Homo sapiens, UniProt P58215); assay: LOXL3 enzyme assay (Promega ROS-Glo, cadaverine substrate); format: biochemical
T2 sequence (P58215 26-753): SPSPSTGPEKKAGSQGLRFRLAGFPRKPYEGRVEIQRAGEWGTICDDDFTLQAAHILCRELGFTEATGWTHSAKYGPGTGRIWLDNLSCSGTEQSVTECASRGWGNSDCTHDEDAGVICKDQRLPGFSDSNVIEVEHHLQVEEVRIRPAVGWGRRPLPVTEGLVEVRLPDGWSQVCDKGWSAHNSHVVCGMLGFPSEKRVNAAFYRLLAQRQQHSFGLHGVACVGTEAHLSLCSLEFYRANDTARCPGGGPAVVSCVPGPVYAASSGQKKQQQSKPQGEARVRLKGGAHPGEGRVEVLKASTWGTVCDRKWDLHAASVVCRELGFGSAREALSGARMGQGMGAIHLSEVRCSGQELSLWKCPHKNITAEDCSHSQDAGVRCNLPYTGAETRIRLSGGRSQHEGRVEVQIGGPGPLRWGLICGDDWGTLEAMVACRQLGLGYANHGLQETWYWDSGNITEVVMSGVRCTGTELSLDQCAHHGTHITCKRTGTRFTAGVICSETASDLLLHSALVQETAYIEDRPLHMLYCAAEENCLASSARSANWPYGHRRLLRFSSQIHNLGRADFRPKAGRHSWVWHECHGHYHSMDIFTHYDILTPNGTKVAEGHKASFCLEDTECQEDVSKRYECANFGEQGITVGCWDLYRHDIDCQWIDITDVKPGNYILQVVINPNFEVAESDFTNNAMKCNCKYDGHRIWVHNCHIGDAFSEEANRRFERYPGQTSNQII
Description: as §1

LOXL2 [3] = molecular target: T1, LOXL2; format: biochemical
Description: The enzyme/inhibitor mixture was then diluted 100-fold into a solution containing all enzyme reaction components, and the activity of the enzyme was assessed.
LOXL2 catalytic activity was determined using the Amplex Red hydrogen peroxide assay kit with cadaverine dihydrochloride as substrate. […] The enzyme/inhibitor mixture was then diluted 100-fold into a solution containing substrate and detection reagents and read kinetically every 5 min.

LOX = molecular target: T3, LOX (Sus scrofa, UniProt P45845); assay: LOX enzyme assay (Promega ROS-Glo, cadaverine substrate); format: biochemical, pig
T3 sequence (P45845 1-249): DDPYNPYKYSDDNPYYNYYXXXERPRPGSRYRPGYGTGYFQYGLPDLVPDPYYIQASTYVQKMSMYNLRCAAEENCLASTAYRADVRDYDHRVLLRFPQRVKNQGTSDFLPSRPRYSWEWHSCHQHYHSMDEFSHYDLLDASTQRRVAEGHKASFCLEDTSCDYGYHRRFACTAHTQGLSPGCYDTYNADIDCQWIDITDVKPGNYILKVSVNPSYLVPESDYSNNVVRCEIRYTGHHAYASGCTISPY
Description: as §1

LOXL3 [4] = molecular target: T2, LOXL3; design: method as in PMID 30536539, PMID 28471663; conditions: literature compounds; cited from earlier work
MAO-B = molecular target: T4, MAO-B (Homo sapiens, UniProt P27338); format: biochemical; conditions: Table 7
T4 construct: purchased Sigma
T4 sequence (P27338 1-520): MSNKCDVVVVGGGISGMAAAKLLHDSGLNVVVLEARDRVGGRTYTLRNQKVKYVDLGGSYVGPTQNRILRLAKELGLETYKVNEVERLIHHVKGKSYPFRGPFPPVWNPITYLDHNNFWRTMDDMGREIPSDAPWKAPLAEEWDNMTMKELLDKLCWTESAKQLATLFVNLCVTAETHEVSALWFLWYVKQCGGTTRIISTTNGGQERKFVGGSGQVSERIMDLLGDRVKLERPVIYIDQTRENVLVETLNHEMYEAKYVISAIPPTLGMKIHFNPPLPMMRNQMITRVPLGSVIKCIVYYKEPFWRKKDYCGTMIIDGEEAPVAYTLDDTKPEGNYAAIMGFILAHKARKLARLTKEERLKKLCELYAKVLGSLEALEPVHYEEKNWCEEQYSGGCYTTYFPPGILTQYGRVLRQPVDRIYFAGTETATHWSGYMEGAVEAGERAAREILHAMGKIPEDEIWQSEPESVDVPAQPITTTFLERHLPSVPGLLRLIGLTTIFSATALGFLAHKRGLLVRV
Description: (§2) All amine oxidase assays were performed with concentrations as above. MAO-A and MAO-B enzymes were purchased from Sigma. The catalytic activity of MAO-A and MAO-B was determined using the Promega MAO-Glo assay kit (substrate included), with clorgyline and deprenyl as reference inhibitor controls, respectively. DAO was purchased from Sigma, and the catalytic activity was determined using the Promega ROS-Glo assay kit, with aminoguanidine as the reference inhibitor control. SSAO was purchased from Sigma. SSAO catalytic activity was determined using the Promega MAO-Glo assay kit, with mofegiline as the reference inhibitor control.

DAO = molecular target: T5, DAO (Sus scrofa, UniProt Q9TRC7); format: biochemical; conditions: Table 7
T5 construct: purchased Sigma
T5 sequence (Q9TRC7 25-755): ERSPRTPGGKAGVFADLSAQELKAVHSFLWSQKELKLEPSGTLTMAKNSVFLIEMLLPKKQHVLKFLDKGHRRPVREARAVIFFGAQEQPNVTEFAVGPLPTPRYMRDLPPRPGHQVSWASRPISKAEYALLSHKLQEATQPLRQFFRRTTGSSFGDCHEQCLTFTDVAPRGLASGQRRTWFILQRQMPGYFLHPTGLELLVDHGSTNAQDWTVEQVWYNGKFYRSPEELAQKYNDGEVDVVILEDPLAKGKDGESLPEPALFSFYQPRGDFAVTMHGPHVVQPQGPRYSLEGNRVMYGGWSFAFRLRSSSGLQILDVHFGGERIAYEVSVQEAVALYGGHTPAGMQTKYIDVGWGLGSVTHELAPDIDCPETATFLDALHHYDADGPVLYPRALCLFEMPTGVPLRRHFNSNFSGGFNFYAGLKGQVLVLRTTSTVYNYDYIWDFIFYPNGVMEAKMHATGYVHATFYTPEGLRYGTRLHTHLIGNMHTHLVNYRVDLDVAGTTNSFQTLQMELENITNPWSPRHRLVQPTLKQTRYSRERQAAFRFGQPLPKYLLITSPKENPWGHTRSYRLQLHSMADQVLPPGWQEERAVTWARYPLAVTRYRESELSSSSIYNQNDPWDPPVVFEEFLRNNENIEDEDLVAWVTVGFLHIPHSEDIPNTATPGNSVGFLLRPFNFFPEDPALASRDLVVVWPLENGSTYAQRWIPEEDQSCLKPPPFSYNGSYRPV
Description: as §2

SSAO [5] = molecular target: T6, SSAO (Homo sapiens, UniProt Q16853); format: biochemical
T6 construct: purchased Sigma
T6 sequence (Q16853 1-763): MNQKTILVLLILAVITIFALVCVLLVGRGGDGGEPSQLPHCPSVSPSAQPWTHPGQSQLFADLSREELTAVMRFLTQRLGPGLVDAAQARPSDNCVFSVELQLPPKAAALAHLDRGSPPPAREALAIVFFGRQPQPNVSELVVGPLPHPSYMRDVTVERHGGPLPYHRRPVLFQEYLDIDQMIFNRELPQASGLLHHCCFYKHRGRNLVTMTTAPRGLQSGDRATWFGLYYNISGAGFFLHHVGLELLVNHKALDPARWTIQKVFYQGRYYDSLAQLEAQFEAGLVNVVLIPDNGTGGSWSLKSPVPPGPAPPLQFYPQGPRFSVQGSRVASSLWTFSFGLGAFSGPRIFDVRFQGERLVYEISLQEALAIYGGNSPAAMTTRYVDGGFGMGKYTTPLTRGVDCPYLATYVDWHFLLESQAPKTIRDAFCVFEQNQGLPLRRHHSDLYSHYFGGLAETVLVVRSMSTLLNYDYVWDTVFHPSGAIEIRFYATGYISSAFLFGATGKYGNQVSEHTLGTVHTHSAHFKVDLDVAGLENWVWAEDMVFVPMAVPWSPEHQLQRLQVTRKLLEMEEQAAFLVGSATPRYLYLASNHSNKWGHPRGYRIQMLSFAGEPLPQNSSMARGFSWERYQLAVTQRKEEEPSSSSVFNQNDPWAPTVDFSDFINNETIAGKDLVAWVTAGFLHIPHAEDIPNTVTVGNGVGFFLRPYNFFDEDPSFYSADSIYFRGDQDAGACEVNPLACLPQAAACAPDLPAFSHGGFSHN
Description: as §2

MAO-A = molecular target: T7, MAO-A (Homo sapiens, UniProt P21397); format: biochemical; conditions: Table 7
T7 construct: purchased Sigma
T7 sequence (P21397 1-527): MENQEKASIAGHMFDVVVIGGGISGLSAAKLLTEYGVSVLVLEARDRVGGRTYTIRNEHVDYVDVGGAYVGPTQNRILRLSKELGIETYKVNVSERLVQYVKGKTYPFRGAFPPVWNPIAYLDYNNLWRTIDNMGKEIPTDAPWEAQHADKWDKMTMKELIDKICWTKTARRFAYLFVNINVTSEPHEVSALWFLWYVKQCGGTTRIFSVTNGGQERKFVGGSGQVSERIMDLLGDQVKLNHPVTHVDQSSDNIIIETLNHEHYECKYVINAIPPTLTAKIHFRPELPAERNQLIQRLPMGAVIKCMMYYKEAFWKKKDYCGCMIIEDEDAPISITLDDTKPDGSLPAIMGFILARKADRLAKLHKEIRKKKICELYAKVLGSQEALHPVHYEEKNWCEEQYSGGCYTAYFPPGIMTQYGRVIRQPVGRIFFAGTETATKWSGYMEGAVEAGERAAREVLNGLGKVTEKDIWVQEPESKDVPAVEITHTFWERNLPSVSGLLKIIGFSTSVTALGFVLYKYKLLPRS
Description: as §2

SSAO [6] = molecular target: T6, SSAO; assay: Assessment of compound as a substrate for SSAO (Amplex red); format: biochemical; conditions: hydrogen peroxide quantified with Amplex red kit; benzylamine positive control
[7] = supplementary csv, unit inferred

Structure (SMILES) | pIC50 (LOXL3 [2]) | pIC50 (MAO-B) | pIC50 (DAO) | pIC50 (SSAO [5]; Table 7) | pIC50 (MAO-A) | pIC50 (LOX; Table 6, 1 h preincubation) | other results
N#CCCN [BAPN, β-aminopropionitrile, reference compound] | 6.51 |  |  |  |  |  | pIC50 (LOXL2 [1]; read-out: LOXL2, 20 min, IC50): 5.37; pIC50 (LOXL2 [1]; read-out: LOXL2, 1 h, IC50): 6.18; pIC50 (LOXL2 [1]; read-out: LOXL2, 3 h, IC50): 6.43; pIC50 (LOXL2 [1]; read-out: LOXL2 IC50): 6.18; LOXL2 inhibition at 10 × IC50 before dilution (LOXL2 [3]): complete inhibition; mode of LOXL2 inhibition (LOXL2 [3]): irreversible inhibitor; pIC50 (LOX): 5.50
Cc1c(-c2cccc(S(=O)(=O)N(C)C)c2)c2ncccc2n1C/C(F)=C/CN [Compound 1] |  |  |  |  |  |  | activity for LOXL2 and LOXL3 within x-fold (LOXL3 [4]): ≤ 3 fold
NCc1cc(Oc2cccc(C(=O)N3C[C@@H](O)[C@H](F)C3)c2)nc(C(F)(F)F)c1 [Compound 2] |  |  |  |  |  |  | activity for LOXL2 and LOXL3 within x-fold (LOXL3 [4]): ≤ 3 fold
Cn1cc(-c2cc(S(C)(=O)=O)cc(S(=O)(=O)c3cnc(CN)s3)c2)cn1 [Compound 21a, (5-((3-(1-Methyl-1H-pyrazol-4-yl)-5-(methylsulfonyl)phenyl)sulfonyl)thiazol-2-yl)methanamine Hydrochloride] | 5.91 and 5.82 | < 4.00 | < 4.00 | 4.88 and 4.76 | < 4.00 | 5.47 and 5.58 | pIC50 (LOXL3 [2]; Table 6, 1 h preincubation): ~6.00
CCc1cc(-c2cnn(C)c2)cc(S(=O)(=O)c2cnc(CN)s2)c1 [Compound 21b, (5-((3-Ethyl-5-(1-methyl-1H-pyrazol-4-yl)phenyl)sulfonyl)thiazol-2-yl)methanamine Hydrochloride] |  |  |  |  |  |  | pIC50 (SSAO [5]): 4.54 and 4.71; substrate of SSAO (SSAO [6]): not a substrate of SSAO
CS(=O)(=O)c1cc(-c2ccccc2)cc(S(=O)(=O)c2csc(CN)n2)c1 [Compound 22b, (4-((5-(Methylsulfonyl)-[1,1′-biphenyl]-3-yl)sulfonyl)thiazol-2-yl)methanamine Hydrochloride] | 5.41 and 5.37 | < 4.00 | < 4.00 | < 4.00 | < 4.00 | < 4.00 | pIC50 (LOX; [7]): < 4.00
Cn1cc(-c2cc(S(C)(=O)=O)cc(S(=O)(=O)c3csc(CN)n3)c2)cn1 [Compound 22c, (4-((3-(1-Methyl-1H-pyrazol-4-yl)-5-(methylsulfonyl)phenyl)sulfonyl)thiazol-2-yl)methanamine Hydrochloride] | 5.12 and 5.17 | < 4.00 | < 4.00 | < 4.00 | < 4.00 | < 4.00 | pIC50 (LOX; [7]): < 4.00
